Reference: patent US4000283A, “Compound 3,4,5-trimethoxyphenyl-(3,4-dimethyl-2-pyridyl)-carbonyl” (priority 1974, dated 1976)

What was measured:
[1] = Acute toxicity in mice (i.p., Litchfield and Wilcoxon); assay type: in vivo, albino I.C.R. Swiss mice; conditions: mouse, in vivo, ip, albino I.C.R. Swiss mice, both sexes
Description: (§1) The acute toxicity studies were carried out in albino I.C.R. Swiss mice weighing 30 ± 2 g, of both sexes. The products were administered intraperitoneally (i.p). The acute toxicity was calculated according to the method of Litchfield and Wilcoxon.

albino I.C.R. Swiss mice = experiment: as above; assay type: in vivo; conditions: mice
Description: as §1

[2] = test system: acetic acid-induced writhing; experiment: Analgesia, acetic acid-induced writhing technique in mice; assay type: in vivo, albino I.C.R. Swiss mice; conditions: for No. of writhes (x ± M.S.E.): Table B-I, control 112.1 ± 4.2; for No. of writhes (x ± M.S.E.) / Number of writhes (x ± M.S.E.): 30 min before acetic acid, counted during 20 min; for analgesic activity: mice, i.p., compared with dextropropoxyphene; for Number of writhes (x ± M.S.E.): Table B-II, control 99.6 ± 5.6
Description: The analgesic action was investigated in albino I.C.R. Swiss mice, using the acetic acid-induced writhing technique. Groups each of 10 mice were assembled.
The analgesics were injected intraperitoneally (i.p), and after 30 minutes 0.25 ml of a 1% solution of acetic acid was injected i.p. A control group received acetic acid only. The number of writhes made by each mouse was counted during the 20 minutes following the administration of acetic acid.

[3] = dextropropoxyphene, 25 mg/kg i.p.

Row | Structure (SMILES) | LD50 [1] [mg/kg] | Acute toxicity compared with dextropropoxyphene (albino I.C.R. Swiss mice) | No. of writhes (x ± M.S.E.) ([2]; Product I, 20 mg/kg i.p.) [writhes] | analgesic activity [2] | No. of writhes (x ± M.S.E.) [2, 3] [writhes] | Number of writhes (x ± M.S.E.) [2, 3] [writhes] | Number of writhes (x ± M.S.E.) ([2]; Product II, 40 mg/kg i.p.) [writhes]
1 | COc1cc(CC2C(C)=C(C)CCN2C)cc(OC)c1OC (centres unmarked) [Product I, 1,3,4-trimethyl-2-(3,4,5-trimethoxybenzyl)-1,2,5,6-tetrahydropyridine] | 154 | less toxic than dextropropoxyphene | 74.5 ± 4.84 | has analgesic activity but less than that of dextropropoxyphene | – | – | –
2 | CCC(=O)O[C@](Cc1ccccc1)(c1ccccc1)[C@H](C)CN(C)C [Dextropropoxyphene, reference compound] | 140 | – | – | – | 22.8 ± 4.74 | 50.2 ± 4.4 | –
3 | COc1cc(C(O)c2nccc(C)c2C)cc(OC)c1OC (centres unmarked) [Product II, 3,4,5-trimethoxyphenyl-(3,4-dimethyl-2-pyridyl)carbinol] | 292 | less toxic than dextropropoxyphene | – | high analgesic activity | – | – | 29 ± 7.3
